# “Also recorded” adds a separate entry of the source.
# Assays:
# hM4Di = test: Chemogenetic inhibition of AgRP neurons with C21; format: in vivo, mouse; details: C21 0.5 mg/kg by osmotic pump, TET3 knockdown mice
# Excerpt: To determine the relevance of activated AgRP neurons from TET3 knockdown, the chemogenetic tool of designer receptors exclusively activated by designer drugs (DREADDs) was used. AAV-sgTet3 was co-injected with an AAV containing a Cre-dependent hM4Di-mCherry transgene (AAV-hM4Di) (Krashes, M. J. et al., 2011, Journal of Clinical Investigations, 121:1424-1428) bilaterally into the ARC of Cas9+ mice, followed by implantation of an osmotic pump to infuse DREADD agonist 21 (C21) (Thompson, K. J. et al., 2018, ACS Pharmacology & Translational Science, 1:61-72) or saline (FIG. 9K). AgRP neuron-specific expression of hM4Di was confirmed by immunofluorescence (FIG. 11).
# Three days after bilateral ARC co-injection with AAV-sgTet3 and AAV-h4MDi, a mini-osmotic pump (model 1007D, Alzet) was implanted subcutaneously. The osmotic pump was filled with either sterile saline solution or DREADD agonist compound 21 (C21) dihydrochloride (0.5 mg/kg, HB6124-25 mg, Hello Bio). Food intake measurement and ITT were performed at day 5 and day 9 post-injection, respectively. For food intake assays, food pellets were weighed at 10:00 each day for 3 continuous days and an average of three-day food intake was calculated.
# estrogen receptor = details: cited from earlier work
# TET3 and CD163 [1] = test: TET3 expression in mouse peritoneal macrophages; format: cell-based; details: wild-type mouse peritoneal macrophages
# Experimental: Peritoneal macrophages were collected from the peritoneal cavity of WT or Mye-Tet3 ko mice by injecting 10 mL of PBS followed by gentle abdominal massaging for 5 min. Cells were pelleted by centrifugation at 1500×g at 4 °C for 8 min. To remove red blood cells, cells were resuspended in […] (Biolegend, 420302, diluted to 1×) and allowed to stand for 5 min, followed by addition of PBS to stop the reaction and twice wash with PBS by centrifugation. Macrophages were enriched by plating cells in RPMI 1640 supplemented with 10% FBS and 1% Anti-Anti for 2 h at 37 °C in a 5% humidified CO2 tissue culture incubator. Non-adherent cells were then removed with three PBS washes.
# After wash in cold PBS, adherent cells were fixed with 4% paraformaldehyde in PBS for 15 min and permeabilized with 0.4% TritonX-100 for 15 min. Cells were blocked in 5% donkey serum/PBS-T at RT for 30 min and quickly washed once with PBS-T before antibody incubation. […] Cells were covered with antifade mounting medium with DAPI (Vector laboratories, H-2000), scoped using a Keyence BZ-X700 fluorescence microscope.
# TET3 and CD163 [2] = test: TET3 expression and TET3/CD163 double-positive cells in human MDMs; format: cell-based; details: for TET3 expression: TGF-β1 10 ng/ml or MCP1 200 ng/ml; for number of TET3/CD163 double-positive cells: TGF-β1 10 ng/ml, 48 h
# Experimental: To prepare CM-HSC and CM-Endo, LX-2 and human endometriosis cells were seeded in 24-well plates (2.5×10^5 cells/well) with their respective growth media and allowed to grow to ~50% confluency. Cells were then washed with PBS and incubated with fresh growth media (500 μl/well) for an additional 24 h. Cell supernatant (CM-HSC/CM-Endo) was collected and immediately used to treat MDMs after 1:1 dilution with their respective growth media. In the control group, only respective growth media were used.
# After wash in cold PBS, adherent cells were fixed with 4% paraformaldehyde in PBS for 15 min and permeabilized with 0.4% TritonX-100 for 15 min. Cells were blocked in 5% donkey serum/PBS-T at RT for 30 min and quickly washed once with PBS-T before antibody incubation. Primary antibodies were diluted in 2% donkey serum/PBS-T. For CD163/TET3 double staining, cells were incubated with anti-TET3 (GeneTex, GTX121453, diluted at 1:400 for MDMs; Millipore Sigma, ABE290, diluted at 1:500 for mouse peritoneal macrophages) and anti-CD163 (Abcam, ab156769, diluted at 1:400 for MDMs; Santa Cruz Biotechnology, sc-58965, diluted at 1:200 for peritoneal macrophages) overnight at 4 °C. The next day, cells were washed 3 times with PBS-T and incubated in 0.4% Triton X-100/PBS with donkey anti-Rabbit IgG Fluor 594 (Invitrogen, A-21207, diluted at 1:500) and goat anti-Mouse lgG Fluor 488 (Invitrogen, A-11029, diluted at 1:500) for 1 h at RT. Cells were covered with antifade mounting medium with DAPI (Vector laboratories, H-2000), scoped using a Keyence BZ-X700 fluorescence microscope.
# Total RNAs were extracted from cells using PureLink RNA Mini Kit. 0.5-1 μg total RNA was reverse transcribed to cDNA in a reaction volume of 20 μL using PrimeScript RT Reagent Kit. Real-time quantitative PCR was performed in a 15 μL reaction volume containing 0.5-1 μL of cDNA using SsoAdvanced Universal SYBR Green Supermix in a Bio-Rad iCycler. Gene expression levels were normalized against RPLP0.
# IL-1β = details: phase III clinical trial; cited from earlier work
# IL-6 receptor = details: rats; cited from earlier work
compound,measurement,setting,value
Cl.Cl.c1ccc2c(c1)N=C(N1CCNCC1)c1ccccc1N2 [C21],hyperphagia,hM4Di,suppressed hyperphagia
same,systemic insulin resistance,hM4Di,reversed systemic insulin resistance
"CCCCN(C)C(=O)CCCCCCCCCC[C@@H]1Cc2cc(O)ccc2[C@H]2CC[C@]3(C)[C@@H](O)CC[C@H]3[C@H]12 [ICI 164,384]",estrogen receptor degradation,estrogen receptor,induces its degradation without affecting its mRNA expression
"MCP1: MCP1, also known as CCL2",TET3 expression and TET3/CD163 double-positive cells,TET3 and CD163 [1],increase TET3 expression and TET3/CD163 double-positive cells
same,TET3 expression,TET3 and CD163 [2],resulted in similar effects
"TGF-β1: purified TGF-β1 (PeproTech, 100-21)",TET3 expression and TET3/CD163 double-positive cells,TET3 and CD163 [1],increase TET3 expression and TET3/CD163 double-positive cells
same,TET3 expression,TET3 and CD163 [2],increased TET3 expression; also recorded: increased TET3 mRNA
same,TET3 expression,TET3 and CD163 [2]; listed as TGF-b1,increased TET3 expression both at mRNA and protein levels
same,number of TET3/CD163 double-positive cells,TET3 and CD163 [2],increased TET3 expression and the number of TET3/CD163 double-positive cells; also recorded: increase in the number of TET3/CD163 double-positive cells
same,number of TET3/CD163 double-positive cells,TET3 and CD163 [2]; listed as TGF-b1,increase in the number of TET3/CD163 double-positive cells
canakinumab: a human monoclonal antibody specific for IL-1β,incident NSCLC and lung cancer mortality,IL-1β,substantially reduced incident NSCLC and lung cancer mortality in a dose-dependent manner
tocilizumab: an anti-IL-6 receptor monoclonal antibody,endometriosis burden,IL-6 receptor,significantly reduced endometriosis burden

# Reference: patent US20260355199A1, “COMPOSITIONS AND METHODS FOR TREATING OR PREVENTING NONALCOHOLIC STEATOHEPATITIS (NASH), ANOREXIA, DEPRESSION, ENDOMETRIOSIS, AND OTHER DISEASES OR DISORDERS” (priority 2022, published 2026)
